# Data: the supplement of paper PMC6045584
# ± gives the standard deviation of the averaged measurements.
# Key:
# SALINOMYCIN = compound: CC[C@@H](C(=O)[C@@H](C)[C@@H](O)[C@H](C)[C@@H]1O[C@@H]([C@@H](CC)C(=O)O)CC[C@@H]1C)[C@H]1O[C@]2(C=C[C@@H](O)[C@]3(CC[C@@](C)([C@H]4CC[C@](O)(CC)[C@H](C)O4)O3)O2)[C@H](C)C[C@@H]1C [SALINOMYCIN]; assay: area under dose-response curve of surviving fraction (unscaled, Aref=0) (surviving fraction x log10(nM)); higher = more resistant; settings: exposure time: 5 days; dose range 0.5-1000 nM
# Summary of the method: (§1)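 Each tumour cell line was screened three times in 384-well plates, receiving eight inhibitor concentrations from 0.5 to 1000 nM for five days. CellTiter-Glo luminescence gave viability, normalised to DMSO-only wells. Using the drc R package, surviving fractions were fitted with 3-parameter logistic dose-response curves, and the unscaled activity area over log10 dose (Aref = 0) was taken as the area under the curve.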
# FLAVOPIRIDOL [1] = compound: T1, CN1CC[C@H](c2c(O)cc(O)c3c(=O)cc(-c4ccccc4Cl)oc23)[C@H](O)C1 [FLAVOPIRIDOL]; assay: as above; settings: exposure time: 5 days; dose range 0.5-1000 nM
# Summary of the method: as §1
# DECITABINE = compound: Nc1ncn([C@H]2C[C@H](O)[C@@H](CO)O2)c(=O)n1 [DECITABINE]; assay: as above; settings: exposure time: 5 days; dose range 0.5-1000 nM
# Summary of the method: as §1
# 17-AAG = compound: C=CCNC1=C2C[C@@H](C)C[C@H](OC)[C@H](O)[C@@H](C)/C=C(\C)[C@H](OC(N)=O)[C@@H](OC)/C=C\C=C(/C)C(=O)NC(=CC1=O)C2=O [17-AAG]; assay: as above; settings: exposure time: 5 days; dose range 0.5-1000 nM
# Summary of the method: as §1
# NUTLIN3 = compound: COc1ccc(C2=N[C@@H](c3ccc(Cl)cc3)[C@@H](c3ccc(Cl)cc3)N2C(=O)N2CCNC(=O)C2)c(OC(C)C)c1 [NUTLIN3]; assay: as above; settings: exposure time: 5 days; dose range 0.5-1000 nM
# Summary of the method: as §1
# 2-METHOXYESTRADIOL = compound: COc1cc2c(cc1O)CC[C@@H]1[C@@H]2CC[C@]2(C)[C@@H](O)CC[C@@H]12 [2-METHOXYESTRADIOL]; assay: as above; settings: exposure time: 5 days; dose range 0.5-1000 nM
# Summary of the method: as §1
# LAPATINIB = compound: CS(=O)(=O)CCNCc1ccc(-c2ccc3ncnc(Nc4ccc(OCc5cccc(F)c5)c(Cl)c4)c3c2)o1 [LAPATINIB]; assay: as above; settings: exposure time: 5 days; dose range 0.5-1000 nM
# Summary of the method: as §1
# ABT-737 = compound: CN(C)CC[C@H](CSc1ccccc1)Nc1ccc(S(=O)(=O)NC(=O)c2ccc(N3CCN(Cc4ccccc4-c4ccc(Cl)cc4)CC3)cc2)cc1[N+](=O)[O-] [ABT-737]; assay: as above; settings: exposure time: 5 days; dose range 0.5-1000 nM
# Summary of the method: as §1
# [2] = compound: CCN(CC)CCCCNc1ncc2cc(-c3cc(OC)cc(OC)c3)c(NC(=O)NC(C)(C)C)nc2n1; assay: as above; settings: exposure time: 5 days; dose range 0.5-1000 nM
# Summary of the method: as §1
# VISMODEGIB = compound: CS(=O)(=O)c1ccc(C(=O)Nc2ccc(Cl)c(-c3ccccn3)c2)c(Cl)c1 [VISMODEGIB]; assay: as above; settings: exposure time: 5 days; dose range 0.5-1000 nM
# Summary of the method: as §1
# FLUOROURACIL = compound: O=c1[nH]cc(F)c(=O)[nH]1 [FLUOROURACIL]; assay: as above; settings: exposure time: 5 days; dose range 0.5-1000 nM
# Summary of the method: as §1
# DOXORUBICIN = compound: COc1cccc2c1C(=O)c1c(O)c3c(c(O)c1C2=O)C[C@@](O)(C(=O)CO)C[C@@H]3O[C@H]1C[C@H](N)[C@H](O)[C@H](C)O1 [DOXORUBICIN]; assay: as above; settings: exposure time: 5 days; dose range 0.5-1000 nM
# Summary of the method: as §1
# FLAVOPIRIDOL [3] = compound: T1, FLAVOPIRIDOL; assay: surviving fraction relative to DMSO-only wells; higher = less growth inhibition; settings: exposure time: 5 days
# Summary of the method: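 Inhibitors were tested at 0.5, 1, 5, 10, 50, 100, 500 and 1000 nM, applied continuously for five days beginning 24 hours after log-phase tumour cells were seeded at 250–500 per well in 384-well plates. CellTiter-Glo luminescence served as the viability measure, expressed as surviving fraction against the median of DMSO-only wells. Each line, screened three times, was kept only with replicate Pearson r >0.7 and median Z' >0.3.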
Test System,area under dose-response curve (SALINOMYCIN),area under dose-response curve (FLAVOPIRIDOL [1]),area under dose-response curve (DECITABINE),area under dose-response curve (17-AAG),area under dose-response curve (NUTLIN3),area under dose-response curve (2-METHOXYESTRADIOL),area under dose-response curve (LAPATINIB),area under dose-response curve (ABT-737),area under dose-response curve [2],area under dose-response curve (VISMODEGIB),area under dose-response curve (FLUOROURACIL),area under dose-response curve (DOXORUBICIN),surviving fraction (FLAVOPIRIDOL [3]; 0.5 nM),surviving fraction (FLAVOPIRIDOL [3]; 1 nM),surviving fraction (FLAVOPIRIDOL [3]; 5 nM),surviving fraction (FLAVOPIRIDOL [3]; 10 nM),surviving fraction (FLAVOPIRIDOL [3]; 50 nM),surviving fraction (FLAVOPIRIDOL [3]; 100 nM),surviving fraction (FLAVOPIRIDOL [3]; 500 nM),surviving fraction (FLAVOPIRIDOL [3]; 1000 nM)
MHM BONE,3.24,2.77,3.4,2.77,3.28,3.26,3.38,3.61,3.05,3.42,3.46,2.66,1.02 ± 0.036,1.04 ± 0.035,1.06 ± 0.024,1.11 ± 0.025,1.227 ± 0.0078,1.16 ± 0.048,0.0433 ± 0.0021,0.0397 ± 0.0021
PCI30 HEADNECK,2.49,2.11,3.24,1.97,3.44,2.94,3.52,3.56,3.28,3.04,3.3,2.03,1.02 ± 0.019,1.02 ± 0.038,1.15 ± 0.031,1.13 ± 0.029,0.701 ± 0.028,0.085 ± 0.0053,0.032 ± 0.0017,0.0303 ± 0.00058
SCC90 HEADNECK,2.84,2.25,3.6,2.31,3.5,2.68,2.81,3.56,2.96,2.93,3.17,2.36,1.07 ± 0.099,1.08 ± 0.072,1.12 ± 0.085,1.07 ± 0.12,0.834 ± 0.079,0.378 ± 0.086,0.0317 ± 0.0057,0.027 ± 0.002
SKBR3 BREAST,2.84,2.07,3.29,1.25,2.96,3.2,2.38,3.52,3.1,3.07,2.95,1.72,1.15 ± 0.074,1.0877 ± 0.00058,1.05 ± 0.022,1.06 ± 0.092,0.541 ± 0.051,0.207 ± 0.035,0.032 ± 0.015,0.0233 ± 0.0031
SYO1 SYNOVIAL,2.04,1.9,2.46,1.74,2.9,2.75,3.2,3,2.51,3,2.82,0.851,1.02 ± 0.044,1 ± 0.064,0.972 ± 0.073,0.881 ± 0.05,0.515 ± 0.0082,0.144 ± 0.0063,0.0511 ± 0.0021,0.0522 ± 0.004
T47D BREAST,3.3,2.51,3.53,2.74,3.35,3.15,3.39,3.61,3.36,3.3,3.16,2.13,0.974 ± 0.18,1.07 ± 0.022,1.01 ± 0.2,1.11 ± 0.039,1.15 ± 0.051,0.67 ± 0.073,0.195 ± 0.0027,0.148 ± 0.0041
